Results from patent publication US9873694B2, “Imidazole quinoline-based immune system modulators” (Janus Biotherapeutics, Inc., priority 2011, dated 2018).

Assays:
human TLR9 (hTLR9) = target: T1, human TLR9 (hTLR9) (Homo sapiens, UniProt Q9NR96); assay: TLR9 antagonist assay (HEK-Blue-hTLR9 cells, NF-kB/AP-1 driven SEAP reporter, ODN 2006 agonist); format: cell-based; conditions: 1 hour compound pre-incubation, then hTLR9 agonist (such as ODN 2006, 1 uM) overnight, SEAP read at 620 nm, 4 parameter Hill fit, read-out: hTLR9 antagonism IC50
T1 construct: host or cells: HEK293 (HEK-Blue-hTLR9)
T1 sequence (Q9NR96 26-1032): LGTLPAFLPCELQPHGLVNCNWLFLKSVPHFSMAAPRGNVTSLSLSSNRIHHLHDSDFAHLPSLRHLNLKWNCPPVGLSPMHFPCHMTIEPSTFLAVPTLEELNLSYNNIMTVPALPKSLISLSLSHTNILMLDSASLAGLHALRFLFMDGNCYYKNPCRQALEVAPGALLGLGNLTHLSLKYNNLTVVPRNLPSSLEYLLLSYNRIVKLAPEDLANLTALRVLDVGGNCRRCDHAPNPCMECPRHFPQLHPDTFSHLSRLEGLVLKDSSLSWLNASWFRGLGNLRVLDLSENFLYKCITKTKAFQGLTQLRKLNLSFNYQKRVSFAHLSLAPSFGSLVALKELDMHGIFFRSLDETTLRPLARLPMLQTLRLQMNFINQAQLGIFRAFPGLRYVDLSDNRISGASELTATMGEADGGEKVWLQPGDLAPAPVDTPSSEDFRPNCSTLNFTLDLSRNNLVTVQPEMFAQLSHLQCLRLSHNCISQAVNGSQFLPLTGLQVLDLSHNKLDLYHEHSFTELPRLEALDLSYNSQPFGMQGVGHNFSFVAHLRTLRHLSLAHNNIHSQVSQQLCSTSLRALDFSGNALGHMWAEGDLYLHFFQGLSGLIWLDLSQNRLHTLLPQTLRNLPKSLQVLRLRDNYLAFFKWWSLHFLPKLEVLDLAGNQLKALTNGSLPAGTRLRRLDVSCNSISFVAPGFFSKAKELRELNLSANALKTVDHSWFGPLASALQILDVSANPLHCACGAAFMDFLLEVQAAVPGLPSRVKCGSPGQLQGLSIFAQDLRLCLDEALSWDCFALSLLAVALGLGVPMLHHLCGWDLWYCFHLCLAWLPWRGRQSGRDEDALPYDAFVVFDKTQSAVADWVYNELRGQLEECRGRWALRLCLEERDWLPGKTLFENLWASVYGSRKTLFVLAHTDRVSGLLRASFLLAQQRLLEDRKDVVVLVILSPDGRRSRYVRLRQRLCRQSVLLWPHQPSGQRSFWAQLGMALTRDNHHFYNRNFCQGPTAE
Excerpt: HEK-Blue™-hTLR9 cells were obtained from InvivoGen Inc. and used to determine test compound antagonism of human TLR9 (hTLR9) driven responses. HEK-Blue™-hTLR9 cells are designed for studying the stimulation of human TLR9 by monitoring the activation of NF-kB. As described by the manufacturer, “HEK-Blue™-hTLR9 cells were obtained by co-transfection of the hTLR9 gene and an optimized secreted embryonic alkaline phosphatase (SEAP) reporter gene into HEK293 cells. The SEAP reporter gene is placed under the control of the IFN-b minimal promoter fused to five NF-kB and AP-1 binding sites. Stimulation with a TLR9 ligand activates NF-kB and AP-1 which induces the production of SEAP. Levels of SEAP can be easily determined with QUANTI-Blue™ a detection medium that turns purple/blue in the presence of alkaline phosphatase”.
A cell suspension of HEK-Blue™-hTLR9 cells at ˜450,000 cells per ml in test medium which contained 5% (v/v) heat inactivated FBS was prepared. 180 ul of cell suspension (˜80,000 cells) was added per well of a flat-bottom 96-well plate and place in an incubator at 37° C. for overnight.
Test compounds were serially diluted in test medium, generally starting at 10 uM, and diluting by 3 fold in a 96 well master plate. 20 ul of diluted test compound was transferred using a 12 channel multi-channel pipet to the cell plate and incubated at 37° C. for 1 hour. Then 20 ul of an hTLR9 agonist (such as ODN 2006, 1 uM) was added to each well and the plate incubated at 37° C. overnight.
Invivogen's QUANTI-Blue™ was prepared following the manufacturer's instructions. […] of resuspended QUANTI-Blue™ was added per well of a flat bottom 96-well plate. 20 ul per well of induced HEK-Blue™-hTLR9 cells supernatant was then added to the plate and the plate was incubated at 37° C. for 1-3 h. SEAP levels were determined using a spectrophotometer at 620 nm.
The concentration dependent inhibition of hTLR9 dependent SEAP production was expressed as the concentration of compound which produced half the maximal level of SEAP induced by the hTLR agonist alone. Percent activity was calculated for each observation using the formula: % activity=((observed O.D.−background O.D.)/(agonist only O.D.−background O.D.))*100. The 50% inhibitory concentration (IC50) (Table 3) was calculated by using a 4 parameter Hill plot sigmoidal curve fit where the inflection point of the sigmoidal curve is defined as the point of 50% activity.

TLR9 = target: T2, TLR9 (Mus musculus, UniProt Q9EQU3); assay: In vivo TLR antagonism: serum IL-12 after CpG ODN 1668 TLR9 agonist injection, single intraperitoneal dose to male C57Bl/6 mice; set-up: species or system C57Bl/6J mouse; conditions: male C57Bl/6J mice; test article i.p. at T=0 hr; CpG ODN 1668 i.p. at T=1 hr; serum IL-12 ELISA at T=4 hr; doses 400 ug to 10 ug
T2 construct: Male C57Bl/6J mice, at ˜8 weeks of age from Jackson Laboratories were used; tissue Jackson Laboratories; host or cells: whole animal, male C57Bl/6J mouse
T2 sequence (Q9EQU3 26-1032): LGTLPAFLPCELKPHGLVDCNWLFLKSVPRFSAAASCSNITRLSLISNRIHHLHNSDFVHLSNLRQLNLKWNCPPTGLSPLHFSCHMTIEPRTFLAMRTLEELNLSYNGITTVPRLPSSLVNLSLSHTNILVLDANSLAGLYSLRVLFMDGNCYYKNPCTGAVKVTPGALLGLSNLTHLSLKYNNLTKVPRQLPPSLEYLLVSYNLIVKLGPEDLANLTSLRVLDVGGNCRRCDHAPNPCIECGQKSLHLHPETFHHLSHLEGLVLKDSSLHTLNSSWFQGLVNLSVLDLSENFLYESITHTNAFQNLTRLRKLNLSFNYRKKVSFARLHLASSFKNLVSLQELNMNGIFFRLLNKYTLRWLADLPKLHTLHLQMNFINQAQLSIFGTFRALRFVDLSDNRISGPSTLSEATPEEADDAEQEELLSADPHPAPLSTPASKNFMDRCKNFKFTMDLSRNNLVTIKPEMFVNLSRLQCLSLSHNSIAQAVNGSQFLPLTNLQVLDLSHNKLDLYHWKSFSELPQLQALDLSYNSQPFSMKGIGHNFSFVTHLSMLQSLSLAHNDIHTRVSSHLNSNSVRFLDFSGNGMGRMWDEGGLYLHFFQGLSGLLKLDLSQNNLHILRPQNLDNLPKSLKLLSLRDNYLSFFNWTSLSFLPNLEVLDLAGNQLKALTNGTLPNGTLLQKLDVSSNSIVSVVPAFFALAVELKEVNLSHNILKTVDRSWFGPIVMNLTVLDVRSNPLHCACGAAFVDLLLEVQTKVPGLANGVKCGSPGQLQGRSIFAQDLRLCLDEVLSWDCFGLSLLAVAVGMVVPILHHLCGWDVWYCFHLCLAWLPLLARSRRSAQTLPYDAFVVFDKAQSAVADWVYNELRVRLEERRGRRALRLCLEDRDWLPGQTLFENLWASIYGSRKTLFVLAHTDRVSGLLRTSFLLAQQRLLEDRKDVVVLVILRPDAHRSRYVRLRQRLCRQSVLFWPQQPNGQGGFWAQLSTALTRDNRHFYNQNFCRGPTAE
Description: The Effects of test articles on Toll-Like Receptor (TLR) Knockdown Following a Single Intraperitoneal Dose to Male C57Bl/6 Mice.
Toll-Like Receptor (TLR) knockdown effect of test articles was evaluated in a C57Bl/6J mouse. Primary end points included a terminal blood collection for analysis of cytokine production in response to CpG-DNA TLR9 agonist injection. Male C57Bl/6J mice, at ˜8 weeks of age from Jackson Laboratories were used. Test groups were 3 mice per treatment group and the groups were administered test article in a series of descending doses within the range of 400 ug to 10 ug. Test article treatment was dosed at T=0 hr by intraperitoneal injection. Agonist (CpG ODN 1668) treatment was dosed one hour later, T=1 hr by intraperitoneal injection. Necropsy was performed 3 hours post agonist treatment, T=4 hr. Blood samples were collected into serum separator tubes, allowed to clot at room temperature for at least 20 minutes, centrifuged at ambient temperature at 3000 g for 10 minutes, and the serum was extracted. ELISA was performed to determine murine IL-12 levels following manufacture's protocol (BioLegend Inc.). Serum IL-12 levels were calculated and plotted versus administered dose of antagonist and inhibitory dose at 50% (ID50) was determined.

IC50 (human TLR9 (hTLR9)) [nM] | In vivo TLR antagonism ID50 (inhibitory dose at 50% of serum IL-12) (TLR9) [µg] | SMILES
3410 | – | CCOCc1nc2c(N(C)CCN(C)C)nc3ccccc3c2n1CCN1CCOCC1 [Compound 60]
389 | – | CCOCc1nc2c(N(C)CCN(C)C)nc3ccccc3c2n1CCN(C)C [Compound 61]
713 | – | CCOCc1nc2c(N3CCN(C)CC3)nc3ccccc3c2n1CCN(C)C [Compound 62]
3350 | – | CCOCc1nc2c(N(C)CCN(C)C)nc3ccccc3c2n1CCOCCO [Compound 63]
6690 | – | CCOCc1nc2c(N3CCN(C)CC3)nc3ccccc3c2n1CCOCCO [Compound 64]
56 | 67 | CCOCc1nc2c(N(C)CCN(C)C)nc3ccccc3c2n1CCN1CCN(C)CC1 [Compound 65]
323 | – | CCOCc1nc2c(N3CCN(C)CC3)nc3ccccc3c2n1CCN1CCN(C)CC1 [Compound 66]
143 | 1262 | CN(C)CCN(C)c1nc2ccccc2c2c1ncn2CCN(C)C [Compound 67]
136 | 280 | CN(C)CCN(C)c1nc2ccccc2c2c1nc(O)n2CCN(C)C [Compound 68]
1650 | – | CN(C)CCN(C)c1nc2ccccc2c2c1nc(O)n2CCc1c[nH]cn1 [Compound 69]
